The text below walks through data of patent US6777428B1, “5-HT1f agonist” (Eli Lilly and Company, priority 1999, dated 2004).

SMILES strings stand for the structures. Structures can show the parent of a compound that is named as a salt.

Take `Cl.Nc1cccc(C(=O)C2CCNCC2)c1`: the melting point was in the range of 208 to 210 °C.
In turn, `CN1CCC(C(=O)c2cccc(NC(=O)c3ccc(F)cc3I)c2)CC1.Cl` displayed a melting point of over 250 °C.
Under `CN1CCC(C(=O)c2cccc(NC(=O)c3ccc(F)cc3F)c2)CC1` (as salt: hydrochloride) stands 181 to 183 °C; under `CN1CCC(C(=O)c2cccc(NC(=O)c3ccc(O)cc3)c2)CC1` (as salt: hydrochloride), over 200 °C; under `O=C(Nc1cccc(C(=O)C2CCNCC2)c1)c1ccc(F)cc1` (as salt: hydrochloride), over 225 °C.
In turn, `CN1CCC(C(=O)c2cccc(NC(=O)c3ccco3)c2)CC1` (as salt: hydrochloride) came in with a melting point of over 200 °C.
Under `CN1CCC(C(=O)c2cccc(NC(=O)c3ccncc3)c2)CC1` (as salt: hydrochloride) stands over 200 °C.
